These results are taken from US20260060964A1, “METHODS AND COMPOSITIONS FOR TREATING SEPSIS” (Antivirus Therapeutics, priority 2021, published 2026).

Series [1] concerns human respiratory picornavirus. The following applies: nasal thixotropic formulation, 12 mg per day nasal spray v. 400 mg oral dose; cited from earlier work.
Series [2] concerns neonatal enterovirus infections. As to the kind of experiment: clinical efficacy: survival of neonates with suspected enterovirus sepsis, placebo-controlled study. The format is in vivo, human. From the text:
(§1) Sixty-one subjects were enrolled; 43 randomized to the treatment group and 18 to the placebo group (FIG. 1). Of these, 43 (70%) were confirmed EV-positive: 31 in the treatment group and 12 in the placebo group. The study was terminated prior to full accrual due to expiration of study drug. […] 8/18 (44%) in the placebo group and lost-to-follow-up in 9/43 (21%) subjects in the treatment group v. 1/18 (6%) in the placebo group. Neonates with suspected EV sepsis (hepatitis, coagulopathy, and/or myocarditis) were enrolled at 19 centers from June 1999-December 2010.
(§2) A 2:1 study drug: placebo randomization with randomly permuted block sizes was used. Randomization codes were accessible only to biostatistical personnel at the coordinating center. Subjects initially received 5.0 mg/kg/dose of a 40 mg/mL liquid formulation of pleconaril (ViroPharma, Inc.; Exton, PA) or matching placebo identical in composition except lacking active study drug. The liquid formulation expired on May 31, 2002, after which the formulation was changed by the manufacturer to a 40 mg/mL suspension. Subjects received 8.5 mg/kg/dose of pleconaril suspension (shown to provide similar drug exposure as 5.0 mg/kg/dose of pleconaril liquid) or matching placebo. Both pleconaril formulations and matching placebos were administered every 8 hours×7 days in 1.0 mL of breast milk or formula by mouth or orogastric tube and were given to subjects who were otherwise NPO. Subjects were permitted to receive antibiotics, acyclovir, cardiotropic medications, and IVIG. Subjects for whom an etiology for illness other than EV infection was documented after enrollment had study drug/placebo discontinued.
(§3) A target sample size of 45 subjects with confirmed EV disease, with an expectation that approximately 67% of enrolled subjects would be confirmed to be EV-infected, was chosen to provide sufficient power to detect a reduction in viral shedding from the oropharynx from 96% to 70% on day 5. EV-confirmed subjects (culture- or PCR-positive) were included in virologic and clinical efficacy analyses, all enrolled subjects were included in safety analyses, and pleconaril recipients for whom pharmacokinetic data were obtained (whether or not EV-infected) were included in pharmacokinetic analyses. Survival analyses were conducted on the total enrolled cohort and on EV-confirmed subjects.
(§4) Fisher's Exact Test was utilized for comparisons of categorical factors and the Kruskal-Wallis and Mann Whitney Tests for continuous factors, with medians and ranges presented. Kaplan-Meier curves and log-rank statistics were utilized to assess differences in duration of culture and PCR positivity and survival between study groups. Changes in toxicity grades from baseline and adverse event rates were compared by chi-square tests.
The primary endpoint was the percentage of patients with a positive viral culture from the oropharynx five days after beginning study drug. Secondary endpoints included duration of culture positivity from oropharynx, rectum, urine and serum; changes in laboratory values reflecting resolution or progression of EV disease or drug toxicity; duration of hospitalization; time to resolution of organ abnormalities; survival; and pleconaril pharmacokinetics. Tertiary endpoints included duration of blood product (fresh frozen plasma, packed red blood cells, platelets, other products) and inotropic support.

A further series concerns CYP 3A. The note with it: oral delivery at 200-400 mg dose level; cited from earlier work.
A short description of series [3]: safety analysis: adverse events in enrolled neonates. The format is in vivo, human. How it is done:
as §2, with “discontinued. […]” for “discontinued.”
(§5) Specimens for EV culture and polymerase chain reaction (PCR) were obtained from the oropharynx, rectum, urine, and serum on days 1-5, 7, 10, and 14. […] Adverse events were recorded at each evaluation, and relationship to study treatment was determined by site investigators.

For series [4] the following is noted: 25° C.; cited from earlier work.
Series [5] is described as follows: plasma pharmacokinetics in neonates. It is filed as in vivo, human. The note with it: on D1. On the procedure:
as §2, with “discontinued. […]” for “discontinued.”
as §5

The next series relates to enterovirus. The series can be described thus: virological efficacy: EV culture and PCR in neonates with suspected enterovirus sepsis, placebo-controlled study. It is filed as in vivo, human.
From the text: as §1, §2, §3, §4
Specimens for EV culture and polymerase chain reaction (PCR) were obtained from the oropharynx, rectum, urine, and serum on days 1-5, 7, 10, and 14. Plasma for pharmacokinetic analysis was obtained on day 1 (2, 4, and 8 hours after study drug administration) and days 3 and 7 (prior to and 2 and 4 hours after administration). Hematology and chemistry tests were obtained on study days 1, 3, 5, 7, 10, and 14 and urinalyses on days 1 and 7. Persisting abnormalities were followed at visits at 2, 6, 12, 18, and 24 months. Adverse events were recorded at each evaluation, and relationship to study treatment was determined by site investigators.
The primary endpoint was the percentage of patients with a positive viral culture from the oropharynx five days after beginning study drug. Secondary endpoints included duration of culture positivity from oropharynx, rectum, urine and serum; changes in laboratory values reflecting resolution or progression of EV disease or drug toxicity; duration of hospitalization; time to resolution of organ abnormalities; survival; and pleconaril pharmacokinetics. […]

A value given as a limit tells only on which side of the number the result lay.

Take `Cc1cc(CCCOc2c(C)cc(-c3noc(C(F)(F)F)n3)cc2C)on1` [Pleconaril, 3-{3,5-dimethyl-4-[3-(3-methylisoxazol-5-yl)propoxy]phenyl}-5-(trifluoromethyl)-1,2,4-oxadiazole]: the “clinical/antiviral effect of nasal spray compared with oral dose” value in series [1] is recorded as “roughly similar clinical/antiviral effect”. For the same molecule, the “cumulative survival v. placebo, EV-confirmed subjects” value in series [2] (over two months) was “trends in cumulative survival favoring the treatment group”. Further, the “cumulative survival over two months v. placebo, all enrolled subjects” value in series [2] (p=0.02) is reported as “greater”. Besides, the “cumulative survival over 18 months v. placebo” value in series [2] (p=0.07 among all subjects, p=0.23 among EV-confirmed subjects) is on record as “continued to exceed”. Further, the “subjects who died, EV-confirmed subjects” value in series [2] (treatment group 7/31 v. placebo 5/12 (42%)) was found to be 23%. Besides, in series [2] (treatment group 10/43 v. placebo 8/18 (44%)), the “subjects who died, all enrolled subjects” value was determined as 23%. In addition, the “induction of CYP 3A (side effect)” value in the series with CYP 3A was “induction of CYP 3A”. For the same molecule, the “subjects with adverse events whose events were judged possibly/probably treatment-related” value in series [3] (treatment group v. 18% placebo) was determined as 3%. Also, the “enrolled subjects who experienced adverse events” value in series [3] (treatment group v. 94% placebo) is “Eighty-six”. Also, in series [4], the solubility in water is less than 0.02 µg/mL. Also, in series [5], the “share with concentrations below IC90” value was determined as 41%. In addition, the “EV-confirmed subjects culture-positive from the oropharynx” value in the series on enterovirus (day 1, treatment group, 6 of 24) turned out to be 25%. Besides, the “subjects shedding cultivable virus from the oropharynx” value in the series with enterovirus (day 5 (primary endpoint)) was “no subjects”. Moreover, the “persistence of PCR positivity from OP, compared with placebo” value in the series with enterovirus (oropharynx, pleconaril group v. placebo) was “shorter”. Moreover, in the series with enterovirus (pleconaril group v. placebo), the “time to culture negativity of all sites combined, compared with placebo” value is given as “shorter”. Also, in the series with enterovirus (treatment group (19 subjects) v. 7.0 days placebo, p=0.08), the “median time to culture-negativity from all sites among culture-positive subjects” value came to 4.0 days. The “median time to sustained culture-negativity, urine” value in the series on enterovirus (treatment group v. 7.0 days placebo, p=0.05) is 4.0 days. The “median time to sustained oropharyngeal culture negativity” value in the series with enterovirus (treatment group, placebo also 3.0) is 3.0 days.
